Results as given in ChEMBL document CHEMBL5316285 (J Med Chem, 2023).
Active and inactive are the calls of the source. No cut-off for these calls is given here.

Legend:
[1] = Tmax in Sprague-Dawley rat plasma at 20 mg/kg, IP by LC-MS/MS analysis; format: ADME, organism-based
[2] = tested on: A2780; assay: Antitumor activity against human A2780 cells xenografted in nude mouse assessed as reduction in NAMPT protein level in tumor tissue at 2 uM/Kg, IV after 3 days by immuno histochemical analysis; format: functional, cell-based; conditions: time 3.0 day
[3] = biological target: T1, Nicotinamide phosphoribosyltransferase (Homo sapiens, UniProt P43490); assay: Competitive binding activity at NAMPT in human A2780 cells assessed as blocking of NAMPT degradation pretreated with 100 uM of (2S,4R)-1-((S)-2-acetamido-3,3-dimethylbutanoyl)-4-hydroxy-N-((S)-1-(4-(4-methylthiazol-5-yl)phenyl)ethyl)pyrrolidine-2-carboxamide for 2 hrs followed by compound addition at 10 nM measured after 24 hrs by Western blotting analysis; format: cell-based
Target sequence in this assay (P43490 whole entry, looked up): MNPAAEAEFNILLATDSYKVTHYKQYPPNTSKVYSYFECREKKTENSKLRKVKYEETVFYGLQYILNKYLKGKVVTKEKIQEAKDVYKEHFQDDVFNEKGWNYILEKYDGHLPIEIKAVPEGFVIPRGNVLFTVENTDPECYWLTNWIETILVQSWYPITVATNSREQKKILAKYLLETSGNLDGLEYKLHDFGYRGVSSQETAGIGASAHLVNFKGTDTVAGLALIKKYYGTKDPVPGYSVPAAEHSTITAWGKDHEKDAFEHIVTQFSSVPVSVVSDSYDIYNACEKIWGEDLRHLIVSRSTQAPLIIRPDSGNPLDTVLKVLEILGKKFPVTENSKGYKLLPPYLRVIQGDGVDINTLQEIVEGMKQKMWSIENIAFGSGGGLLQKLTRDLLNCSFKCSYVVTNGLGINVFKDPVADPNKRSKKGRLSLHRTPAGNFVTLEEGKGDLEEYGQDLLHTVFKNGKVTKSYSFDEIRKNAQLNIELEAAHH

[4] = Tmax in Sprague-Dawley rat plasma at 5 mg/kg, iv by LC-MS/MS analysis; format: ADME, organism-based; conditions: time 0.083-24 hrs
[5] = Cmax in mouse plasma at 20 mg/kg, IP after 0.083 to 24 hrs by LC-MS/MS analysis; format: ADME, organism-based; set-up: time upper 24 hrs, time lower 0.083 hrs, dose 20 mg/kg, route ip
[6] = Half life in mouse plasma at 5 mg/kg, iv by LC-MS/MS analysis; format: ADME, organism-based
[7] = AUC in Sprague-Dawley rat plasma at 20 mg/kg, IP after 0.083 to 24 hrs by LC-MS/MS analysis; format: ADME, organism-based; set-up: dose 20 mg/kg, time 0.083-24 hrs, route ip
[8] = biological target: T2, von Hippel-Lindau disease tumor suppressor/Nicotinamide phosphoribosyltransferase (Homo sapiens, UniProt P43490+P40337); assay: Protac activity at VHL/NAMPT in human A2780 cells assessed as reduction of NAMPT protein level at 10 nM measured after 24 hrs by Western blotting analysis; format: cell-based
Target sequence in this assay (P40337 whole entry, looked up): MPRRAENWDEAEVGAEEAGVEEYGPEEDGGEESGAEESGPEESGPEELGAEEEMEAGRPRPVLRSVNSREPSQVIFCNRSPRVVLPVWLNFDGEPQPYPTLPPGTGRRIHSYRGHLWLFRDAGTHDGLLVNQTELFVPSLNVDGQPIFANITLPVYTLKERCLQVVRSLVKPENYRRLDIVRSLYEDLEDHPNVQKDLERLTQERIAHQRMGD
Target sequence in this assay (P43490 whole entry, looked up): as the sequence (P43490 whole entry, looked up) above

[9] = AUC in mouse plasma at 5 mg/kg, iv after 0.083 to 24 hrs by LC-MS/MS analysis; format: ADME, organism-based; set-up: time lower 0.083 hrs, dose 5 mg/kg, time upper 24 hrs, route iv
[10] = biological target: T2, von Hippel-Lindau disease tumor suppressor/Nicotinamide phosphoribosyltransferase; assay: Protac activity at VHL/NAMPT in human A2780 cells assessed as reduction of NAMPT protein level at greater than 0.37 uM measured after 24 hrs by Western blotting analysis; format: cell-based
Target sequence in this assay (P40337 whole entry, looked up): as the sequence (P40337 whole entry, looked up) above
Target sequence in this assay (P43490 whole entry, looked up): as the sequence (P43490 whole entry, looked up) above

[11] = Toxicity in nude mouse xenografted with human A2780 cells assessed as loss in body weight at 2 uM/Kg, IV once every 3 days upto 21 days; conditions: 504 h, time 21 day
[12] = Half life in Sprague-Dawley rat plasma at 5 mg/kg, iv by LC-MS/MS analysis; format: ADME, organism-based
[13] = Toxicity in nude mouse xenografted with human A2780 cells assessed as pathological damage in liver at 2 uM/Kg, IV once every 3 days upto 21 days by hematoxylin and eosin staining analysis; format: tissue-based; conditions: 504 h, time 21 day
[14] = AUC in Sprague-Dawley rat plasma at 5 mg/kg, iv after 0.083 to 24 hrs by LC-MS/MS analysis; format: ADME, organism-based; set-up: dose 5 mg/kg, time upper 24 hrs, time lower 0.083 hrs, route iv
[15] = Toxicity in nude mouse xenografted with human A2780 cells assessed as pathological damage in spleen at 2 uM/Kg, IV once every 3 days upto 21 days by hematoxylin and eosin staining analysis; format: tissue-based; conditions: 504 h, time 21 day
[16] = tested on: A2780; assay: Antitumor activity against human A2780 cells xenografted in nude mouse assessed as necrotic tumor cells at 2 uM/Kg, IV once every 3 days upto 21 days relative by hematoxylin and eosin staining analysis; format: functional, cell-based; conditions: time 21.0 day
[17] = biological target: T1, Nicotinamide phosphoribosyltransferase; assay: Competitive binding activity at NAMPT in human A2780 cells assessed as blocking of NAMPT degradation pretreated with MG132 for 2 hrs followed by compound addition at 10 nM measured after 24 hrs by Western blotting analysis; format: cell-based
Target sequence in this assay (P43490 whole entry, looked up): as above

[18] = tested on: A2780; assay: Downregulation of NAD+ in human A2780 cells treated upto 1000 nM for 24 hrs by chromogen based assay; format: functional, cell-based
[19] = biological target: T1, Nicotinamide phosphoribosyltransferase; assay: Competitive binding activity at NAMPT in human A2780 cells assessed as blocking of NAMPT degradation pretreated with carfilzomib for 2 hrs followed by compound addition at 10 nM measured after 24 hrs by Western blotting analysis; format: cell-based
Target sequence in this assay (P43490 whole entry, looked up): as above

[20] = tested on: A2780; assay: Antitumor activity against human A2780 cells xenografted in nude mouse assessed as reduction in Ki67 expression in tumor tissue at 2 uM/Kg, IV once every 3 days upto 21 days relative by immuno histochemical analysis; format: functional, cell-based; conditions: time 21.0 day
[21] = biological target: T1, Nicotinamide phosphoribosyltransferase; assay: Competitive binding activity at NAMPT in human A2780 cells assessed as blocking of NAMPT degradation pretreated with epoxomicin for 2 hrs followed by compound addition at 10 nM measured after 24 hrs by Western blotting analysis; format: cell-based
Target sequence in this assay (P43490 whole entry, looked up): as above

[22] = biological target: T1, Nicotinamide phosphoribosyltransferase; assay: Inhibition of NAMPT (unknown origin) using NAM as substrate preincubated for 5 mins followed by substrate addition measured after 15 mins in presence of ATP by fluorescence based microplate reader analysis
Target sequence in this assay (P43490 whole entry): as the sequence (P43490 whole entry, looked up) above

[23] = tested on: A2780; assay: Antiproliferative activity against human A2780 cells incubated for 72 hrs in carbon-dioxide atmosphere measured by cell counting kit-8 method; format: functional, cell-based; conditions: A2780, 72 h
[24] = Half life in Sprague-Dawley rat plasma at 20 mg/kg, IP by LC-MS/MS analysis; format: ADME, organism-based
[25] = Cmax in Sprague-Dawley rat plasma at 5 mg/kg, iv after 0.083 to 24 hrs by LC-MS/MS analysis; format: ADME, organism-based; set-up: dose 5 mg/kg, time upper 24 hrs, time lower 0.083 hrs, route iv
[26] = biological target: T1, Nicotinamide phosphoribosyltransferase; assay: Competitive binding activity at NAMPT in human A2780 cells assessed as blocking of NAMPT degradation pretreated with 200 nM of 1-(4-(piperidin-1-ylsulfonyl)phenyl)-3-(pyridin-3-ylmethyl)thiourea for 2 hrs followed by compound addition at 10 nM measured after 24 hrs by Western blotting analysis; format: cell-based
Target sequence in this assay (P43490 whole entry, looked up): as above

[27] = Toxicity in nude mouse xenografted with human A2780 cells assessed as pathological damage in heart at 2 uM/Kg, IV once every 3 days upto 21 days by hematoxylin and eosin staining analysis; format: tissue-based; conditions: 504 h, time 21 day
[28] = Cmax in Sprague-Dawley rat plasma at 20 mg/kg, IP after 0.083 to 24 hrs by LC-MS/MS analysis; format: ADME, organism-based; set-up: time lower 0.083 hrs, dose 20 mg/kg, time upper 24 hrs, route ip
[29] = MRT in Sprague-Dawley rat plasma at 20 mg/kg, IP after 0.083 to 24 hrs by LC-MS/MS analysis; format: ADME, organism-based; conditions: time 0.083-24 hrs
[30] = biological target: T1, Nicotinamide phosphoribosyltransferase; assay: Competitive binding activity at NAMPT in human A2780 cells assessed as blocking of NAMPT degradation pretreated with MLN4924 for 2 hrs followed by compound addition at 10 nM measured after 24 hrs by Western blotting analysis; format: cell-based
Target sequence in this assay (P43490 whole entry, looked up): as above

[31] = MRT in Sprague-Dawley rat plasma at 5 mg/kg, iv after 0.083 to 24 hrs by LC-MS/MS analysis; format: ADME, organism-based; conditions: time 0.083-24 hrs
[32] = Cmax in mouse plasma at 5 mg/kg, iv after 0.083 to 24 hrs by LC-MS/MS analysis; format: ADME, organism-based; set-up: time upper 24 hrs, dose 5 mg/kg, time lower 0.083 hrs, route iv
[33] = biological target: T2, von Hippel-Lindau disease tumor suppressor/Nicotinamide phosphoribosyltransferase; assay: Protac activity at VHL/NAMPT in human A2780 cells assessed as induction of NAMPT degradation measured at 10 nM; format: cell-based; conditions: time <= 24.0 hrs, TDE = time-dependent effect
Target sequence in this assay (P40337 whole entry, looked up): as the sequence (P40337 whole entry, looked up) above
Target sequence in this assay (P43490 whole entry, looked up): as the sequence (P43490 whole entry, looked up) above

[34] = biological target: T1, Nicotinamide phosphoribosyltransferase; assay: Binding affinity to NAMPT in human A2780 cells incubated at 10 uM measured from 63 to 75 degreeC for 7 hrs by cellular thermal shift assay; format: cell-based
[35] = Toxicity in nude mouse xenografted with human A2780 cells assessed as pathological damage in kidney at 2 uM/Kg, IV once every 3 days upto 21 days by hematoxylin and eosin staining analysis; format: tissue-based; conditions: 504 h, time 21 day
[36] = biological target: T2, von Hippel-Lindau disease tumor suppressor/Nicotinamide phosphoribosyltransferase; assay: Protac activity at VHL/NAMPT in human A2780 cells assessed as degradation of NAMPT using NAM as substrate preincubated for 5 mins followed by substrate addition measured after 5 mins in presence of ATP by luminesence based microplate reader analysis; format: cell-based
Target sequence in this assay (P43490 whole entry): as the sequence (P43490 whole entry, looked up) above
Target sequence in this assay (P40337 whole entry): as the sequence (P40337 whole entry, looked up) above

[37] = biological target: von Hippel-Lindau disease tumor suppressor (Homo sapiens) (UniProt P40337); assay: Binding affinity to VHL in human A2780 cells incubated at 10 uM measured from 63 to 75 degreeC for 7 hrs by cellular thermal shift assay; format: cell-based
Sequence of von Hippel-Lindau disease tumor suppressor (Homo sapiens) (P40337 whole entry, looked up): as above

[38] = tested on: A2780; assay: Antitumor activity against human A2780 cells xenografted in nude mouse assessed as tumor growth inhibition at 2 uM/Kg, IV once every 3 days upto 21 days relative to control; format: functional; conditions: time 21 day, at 2 µmol/kg
[39] = Toxicity in nude mouse xenografted with human A2780 cells assessed as pathological damage in lung at 2 uM/Kg, IV once every 3 days upto 21 days by hematoxylin and eosin staining analysis; format: tissue-based; conditions: 504 h, time 21 day
[40] = Retinal toxicity in nude mouse xenografted with human A2780 cells at 2 uM/Kg, IV once every 3 days upto 21 days by microscopic analysis; conditions: 504 h, time 21 day
[41] = biological target: T2, von Hippel-Lindau disease tumor suppressor/Nicotinamide phosphoribosyltransferase; assay: Protac activity at VHL/NAMPT in human A2780 cells assessed as induction of NAMPT degradation measured at 0.005 to 10 microM after 24 hrs by Western blotting analysis; format: cell-based; conditions: dose 0.005-10 µM
Target sequence in this assay (P40337 whole entry, looked up): as above
Target sequence in this assay (P43490 whole entry, looked up): as the sequence (P43490 whole entry, looked up) above

[42] = tested on: CT26; assay: Antiproliferative activity against mouse CT26 cells; format: functional, cell-based

With `Cc1ncsc1-c1ccc([C@H](C)NC(=O)[C@@H]2C[C@@H](O)CN2C(=O)[C@@H](NC(=O)CCCCCCCCN2CCN(S(=O)(=O)c3ccc(NC(=O)NCc4cccnc4)cc3)CC2)C(C)(C)C)cc1` the Tmax [1] was 5 h, the Activity [2] was “Active” and the Activity [3] was “Active”. The Tmax [4] was 4.8 min, the Cmax [5] was 417 ng/mL and the half-life [6] was 3.72 h. For the same molecule, the AUC [7] was 1740 ng·h/mL, the Activity [8] was “Active” and the AUC [9] was 477 ng·h/mL. For the same molecule, the Activity [10] was “inactive”, the Activity [11] was “Non-Toxic” and the half-life [12] was 6.53 h. For the same molecule, the Activity [13] was “Non-Toxic”, the AUC [14] was 1310 ng·h/mL and the Activity [15] was “Non-Toxic”. The Activity [16] was “Active”, the Activity [17] was “Active” and the Activity [18] was “Active”. For the same molecule, the Activity [19] was “Active”, the Activity [20] was “Active” and the Activity [21] was “Active”. It also gave an IC50 [22] of 0.15 µM, an IC50 [23] of 0.0015 µM and a half-life [24] of 5.41 h. For the same molecule, the Cmax [25] was 3190 ng/mL, the Activity [26] was “Active” and the Activity [27] was “Non-Toxic”. For the same molecule, the Cmax [28] was 250 ng/mL, the MRT [29] was 7.51 h and the Activity [30] was “Active”. The MRT [31] was 4.45 h, the Cmax [32] was 1080 ng/mL and the Activity [33] was “Tde”. The Activity [34] was “Active”, the Activity [35] was “Non-Toxic” and the DC50 [36] was less than 0.00017 µM. The Activity [37] was “Active”, the TGI [38] was 88.1% and the Activity [39] was “Non-Toxic”. For the same molecule, the Activity [40] was “Non-Toxic”, the Activity [41] was “Dose-Dependent Effect” and the IC50 [42] was 0.67 µM.
